Patent US10435399B2, “HDAC6 inhibitory heterocyclic compound” (TAKEDA PHARMACEUTICAL COMPANY LIMITED, priority 2017, dated 2019)

Target: T1, HDAC6 enzyme (Homo sapiens, UniProt Q9UBN7)
T1 construct: transducing full length HDAC6 gene into Sf-9 insect cells; GST; purchased SignalChem; host or cells: Sf-9 insect cells
T1 sequence (Q9UBN7 1-1215): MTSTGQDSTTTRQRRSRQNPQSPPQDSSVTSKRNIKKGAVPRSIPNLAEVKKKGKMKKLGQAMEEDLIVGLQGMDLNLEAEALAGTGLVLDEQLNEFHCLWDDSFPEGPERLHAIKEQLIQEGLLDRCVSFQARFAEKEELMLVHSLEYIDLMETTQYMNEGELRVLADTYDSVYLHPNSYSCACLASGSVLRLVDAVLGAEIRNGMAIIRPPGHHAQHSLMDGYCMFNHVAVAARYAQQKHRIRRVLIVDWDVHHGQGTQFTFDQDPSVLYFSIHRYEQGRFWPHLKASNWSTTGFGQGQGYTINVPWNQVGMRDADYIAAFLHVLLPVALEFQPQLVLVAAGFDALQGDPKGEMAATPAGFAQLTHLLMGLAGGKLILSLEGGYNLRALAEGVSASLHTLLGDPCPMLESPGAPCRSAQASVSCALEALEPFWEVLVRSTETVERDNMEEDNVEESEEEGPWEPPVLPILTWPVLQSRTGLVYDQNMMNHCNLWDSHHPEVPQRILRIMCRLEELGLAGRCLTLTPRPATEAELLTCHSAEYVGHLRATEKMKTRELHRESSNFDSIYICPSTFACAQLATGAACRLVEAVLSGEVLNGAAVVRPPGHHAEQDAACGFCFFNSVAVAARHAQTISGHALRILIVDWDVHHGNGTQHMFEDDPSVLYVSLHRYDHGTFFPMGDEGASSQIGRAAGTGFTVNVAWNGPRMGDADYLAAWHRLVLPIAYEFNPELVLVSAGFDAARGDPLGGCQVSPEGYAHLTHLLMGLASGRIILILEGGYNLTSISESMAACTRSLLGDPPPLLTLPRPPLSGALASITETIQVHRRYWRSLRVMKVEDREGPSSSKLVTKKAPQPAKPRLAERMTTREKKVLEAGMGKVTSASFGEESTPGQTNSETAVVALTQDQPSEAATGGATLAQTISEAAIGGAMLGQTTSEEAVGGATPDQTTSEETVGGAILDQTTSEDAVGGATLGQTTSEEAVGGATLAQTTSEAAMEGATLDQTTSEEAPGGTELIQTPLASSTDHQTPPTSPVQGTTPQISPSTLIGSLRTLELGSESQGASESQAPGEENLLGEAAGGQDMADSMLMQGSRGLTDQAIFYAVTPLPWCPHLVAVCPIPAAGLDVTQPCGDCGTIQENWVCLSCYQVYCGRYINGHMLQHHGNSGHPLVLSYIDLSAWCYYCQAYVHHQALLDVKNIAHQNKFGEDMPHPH
Test: HDAC6 enzyme inhibitory activity (HDAC-Glo I/II Assay kit)
Assay type: biochemical
Details: 10 μM; wells without enzyme = 100% inhibition; read-out: HDAC6 inhibitory rate (%) (10 μM)
Method: HDAC6 enzyme prepared by transducing full length HDAC6 gene into Sf-9 insect cells and purifying by GST affinity column were purchased from SignalChem. Using this enzyme, HDAC6 enzyme inhibitory activities of the compound of the present invention were evaluated. Enzymes were used after preserved at −70° C. HDAC6 enzyme inhibitory activity of the compound of the present invention was measured using HDAC-Glo™ I/II Assay kit (Promega) according to the following experimental method. The test compound diluted with assay buffer (24 mM Tris-HCl (pH 7.5), 1 mM MgCl2, 0.35 mM KCl, 135 mM NaCl, 0.6 mM Glutathione, 0.01% Tween-20) was added to a 384-well plate by each 2 μL. Then, HDAC6 enzyme solution diluted with assay buffer was added thereto by each 4 μL, and the plate was incubated at room temperature for 60 min. After incubated, HDAC substrate-Developer solution prepared according to Promega protocol attached to the assay kit was added to the 384-well plate by each 2 μL, and the enzyme reaction was started. After reacting at room temperature for 20 min, luminescence level was measured using plate reader Envision (PerkinElmer). The inhibitory activity of each compound of Example was calculated as a relative activity value when luminescence level in wells without enzyme is considered as 100% inhibition.

| SMILES | inhibition at 10 µM |
| --- | --- |
| O=C(N[C@@H]1CCCC[C@H]1N1Cc2ccc(-c3nnc(C(F)F)o3)cc2C1=O)[C@H]1C[C@H]1F (mixture of isomers) [Example 111, (1RS,2RS)-N-((1R,2R)-2-(6-(5-(difluoromethyl)-1,3,4-oxadiazol-2-yl)-1-oxo-1,3-dihydro-2H-isoindol-2-yl)cyclohexyl)-2-fluorocyclopropanecarboxamide] | 101% |
| O=C(N[C@@H]1CCCC[C@H]1N1Cc2ccc(-c3nnc(C(F)F)o3)cc2C1=O)[C@@H]1C[C@H]1F (racemic) [Example 69, (1SR,2RS)-N-((1R,2R)-2-(6-(5-(difluoromethyl)-1,3,4-oxadiazol-2--yl)-1-oxo-1,3-dihydro-2H-isoindol-2-yl)cyclohexyl)-2-fluorocyclopropanecarboxamide] | 101% |
| COC(=O)N1CC[C@@H](c2ccc(F)cc2)[C@H](N2Cc3ccc(-c4nnc(C(F)F)o4)cc3C2=O)C1 (racemic) [Example 504, methyl (3SR,4SR)-3-(6-(5-(difluoro-methyl)-1,3,4-oxadiazol-2-yl)-1-oxo-1,3-dihydro-2H-isoindol-2-yl)-4-(4-fluoro-phenyl) piperidine-1-carboxylate] | 100% |
| O=C1c2cc(-c3nnc(C(F)F)o3)ccc2CN1[C@@H]1CCCC[C@H]1n1cccn1 (racemic) [Example 514, 6-(5-(difluoromethyl)-1,3,4-oxadiazol-2-yl)-2-((1RS,2RS)-2-(1H-pyrazol-1-yl)cyclohexyl)isoindolin-1-one] | 99% |
| O=C1c2cc(-c3nnc(C(F)F)o3)cnc2CN1[C@@H]1CCCC[C@H]1n1cccn1 (racemic) [Example 526, 3-(5-(difluoromethyl)-1,3,4-oxadiazol-2-yl)-6-((1RS,2RS)-2-(1H-pyrazol-1-yl)cyclohexyl)-6,7-dihydro-5H-pyrrolo[3,4-b]pyridin-5-one] | 101% |
| O=C1c2cc(-c3nnc(C(F)F)o3)ccc2CN1[C@H]1CCCC[C@H]1n1cccn1 (racemic) [Example 527, 6-(5-(difluoromethyl)-1,3,4-oxadiazol-2-yl)-2-((1SR,2RS)-2-(1H-pyrazol-1-yl)cyclohexyl)isoindolin-1-one] | 99% |
| O=C1c2cc(-c3nnc(C(F)F)o3)cnc2CN1[C@@H]1CCCC[C@H]1Oc1ccc(F)cc1 (racemic) [Example 535, 3-(5-(difluoromethyl)-1,3,4-oxadiazol-2-yl)-6-((1RS,2RS)-2-(4-fluorophenoxy)cyclohexyl)-6,7-dihydro-5H-pyrrolo[3,4-b]pyridin-5-one] | 99% |
| O=C1c2cc(-c3nnc(C(F)F)o3)cnc2CN1[C@H]1CCCC[C@H]1n1cccn1 (racemic) [Example 541, 3-(5-(difluoromethyl)-1,3,4-oxadiazol-2-yl)-6-((1SR,2RS)-2-(1H-pyrazol-1-yl)cyclohexyl)-6,7-dihydro-5H-pyrrolo[3,4-b]pyridin-5-one] | 99% |
| O=C(C(F)F)N1CC[C@@H](c2ccc(F)cc2)[C@H](N2Cc3ccc(-c4nnc(C(F)F)o4)cc3C2=O)C1 (racemic) [Example 546, 2-((3SR,4SR)-1-(difluoroacetyl)-4-(4-fluorophenyl)piperidin-3-yl)-6-(5-(difluoromethyl)-1,3,4-oxadiazol-2-yl)isoindolin-1-one] | 100% |
| O=C1c2cc(-c3nnc(C(F)F)o3)ccc2CN1[C@@H]1CN(C(=O)C(F)(F)C(F)(F)F)CC[C@H]1c1ccc(F)cc1 (racemic) [Example 548, 6-(5-(difluoromethyl)-1,3,4-oxadiazol-2-yl)-2-((3SR,4SR)-4-(4-fluorophenyl)-1-(2,2,3,3,3-pentafluoropropanoyl)piperidin-3-yl)isoindolin-1-one] | 100% |
| O=C1c2cc(-c3nnc(C(F)F)o3)ccc2CN1[C@@H]1CCCC[C@H]1c1ncco1 (racemic) [Example 549, 6-(5-(difluoromethyl)-1,3,4-oxadiazol-2-yl)-2-((1RS,2RS)-2-(1,3-oxazol-2-yl)cyclohexyl)isoindolin-1-one] | 100% |
| N#C[C@@H]1CCCC[C@H]1N1Cc2ccc(-c3nnc(C(F)F)o3)cc2C1=O (racemic) [Example 556, (1RS,2RS)-2-(6-(5-(difluoromethyl)-1,3,4-oxadiazol-2-yl)-1-oxo-1,3-dihydro-2H-isoindol-2-yl)cyclohexanecarbonitrile] | 97% |
| O=C1c2cc(-c3nnc(C(F)F)o3)ccc2CN1[C@@H]1CCCC[C@H]1c1noc(C2CC2)n1 (racemic) [Example 558, 2-((1RS,2RS)-2-(5-cyclopropyl-1,2,4-oxadiazol-3-yl)cyclohexyl)-6-(5-(difluoromethyl)-1,3,4-oxadiazol-2-yl)isoindolin-1-one] | 99% |
| O=C1c2cc(-c3nnc(C(F)F)o3)ccc2CN1[C@@H]1CCCC[C@H]1Oc1cncc(F)c1 (racemic) [Example 559, 6-(5-(difluoromethyl)-1,3,4-oxadiazol-2-yl)-2-((1RS,2RS)-2-((5-fluoropyridin-3-yl)oxy)cyclohexyl)isoindolin-1-one] | 100% |
| O=C1c2cc(-c3nnc(C(F)F)o3)ccc2CN1[C@@H]1CCCC[C@H]1c1nc(C2CC2)no1 (racemic) [Example 561, 2-((1RS,2RS)-2-(3-cyclopropyl-1,2,4-oxadiazol-5-yl)cyclohexyl)-6-(5-(difluoromethyl)-1,3,4-oxadiazol-2-yl)isoindolin-1-one] | 100% |
| CC(C)(C)OC(=O)N1CCC[C@H](N2Cc3ccc(-c4nnc(C(F)F)o4)cc3C2=O)[C@H]1c1ccc(F)cc1 (racemic) [Example 574, tert-butyl (2RS,3SR)-3-(6-(5-(difluoromethyl)-1,3,4-oxadiazol-2-yl)-1-oxo-1,3-dihydro-2H-isoindol-2-yl)-2-(4-fluorophenyl)piperidine-1-carboxylate] | 100% |
| O=C1c2cc(-c3nnc(C(F)F)o3)ccc2CN1[C@H]1CCCN[C@@H]1c1ccc(F)cc1 (racemic) [Example 575, 6-(5-(difluoromethyl)-1,3,4-oxadiazol-2-yl)-2-((2RS,3SR)-2-(4-fluorophenyl)piperidin-3-yl)isoindolin-1-one] | 100% |
| CC(F)(F)C(=O)N1CCC[C@H](N2Cc3ccc(-c4nnc(C(F)F)o4)cc3C2=O)[C@H]1c1ccc(F)cc1 (racemic) [Example 576, 6-(5-(difluoromethyl)-1,3,4-oxadiazol-2-yl)-2-((2RS,3SR)-1-(2,2-difluoropropanoyl)-2-(4-fluorophenyl)piperidin-3-yl)isoindolin-1-one] | 99% |
| O=C1c2cc(-c3nnc(C(F)F)o3)ccc2CN1[C@H]1CCCN(C(=O)C(F)(F)C(F)(F)F)[C@@H]1c1ccc(F)cc1 (racemic) [Example 577, 6-(5-(difluoromethyl)-1,3,4-oxadiazol-2-yl)-2-((2RS,3SR)-2-(4-fluorophenyl)-1-(2,2,3,3,3-pentafluoropropanoyl)piperidin-3-yl)isoindolin-1-one] | 97% |
| COC(=O)N1CCC[C@H](N2Cc3ccc(-c4nnc(C(F)F)o4)cc3C2=O)[C@H]1c1ccc(F)cc1 (racemic) [Example 578, methyl (2RS,3SR)-3-(6-(5-(difluoromethyl)-1,3,4-oxadiazol-2-yl)-1-oxo-1,3-dihydro-2H-isoindol-2-yl)-2-(4-fluorophenyl)piperidine-1-carboxylate] | 100% |
